Experimental data reported in US20260193219A1, “TRIAZINE DERIVATIVES FOR TREATING DISEASES RELATING TO NEUROTROPHINS” (AlzeCure Pharma AB, priority 2020, published 2026).

Key:
C57/Bl6 mice = assay: Passive avoidance task in scopolamine-treated mice; type: in vivo; conditions: mice treated with scopolamine 0.3 mg/kg s.c.; compound single s.c. administration 60 min prior to training, different doses
Method: The passive avoidance (PA) is an aversive learning task based on classical (Pavlovian) fear conditioning that allows for analysis of both facilitation and impairment of memory function by adjusting the unconditioned stimulus, i.e. the electrical foot shock. Commonly a cognitive-impairing agent is administered to the animals to mimic the neurochemical disturbances present in various cognitive disorders e.g. cholinergic (scopolamine) and glutamatergic (MK-801) deficits.
Prior to testing, the animals are brought to the experimental room where they were allowed to habituate for 60 min. The test is conducted using a modified shuttle box with two communicating compartments of equal size with a small sliding door built into the separating wall and a stainless-steel bar floor. One of the compartments is not illuminated and thus black whereas the other compartment (the light one) is illuminated by an electric bulb, installed on the top of a plexiglass cover. The PA training is conducted in a single session. […] Latency to cross over into the dark compartment (training latency) is recorded. […] The latency to cross over into the dark compartment with all four feet is measured (retention latency) as well as time in bright compartment and a number of other relevant parameters (e.g. number of visits in the dark compartment). […]

TrkA = biological target: T1, TrkA (Homo sapiens, UniProt P04629); assay: In vitro Trk receptor modulation assay (Enzyme Fragment Complementation), U2OS cells over-expressing TrkA; type: cell-based; conditions: compound pre-mixed with ligand (NGF), final 10 ng/mL, 3 hours, modulator mode
T1 construct: expressed in transfected cells; host or cells: U2OS
Source text: (§1) A high throughput cell-based screen was used to identify positive modulators of TrkA and TrkB. The screen involves the use of cell-based assay overexpressing TrkA, or TrkB. The purpose of the assay is to identify compounds that modulate neurotrophin signalling (Forsell et al 2012). The assay can be used in inhibitor mode using a high concentration of ligand, in modulator mode using an intermediate concentration and in agonist mode using a low concentration of ligand.
(§2) The assay uses Enzyme Fragment Complementation (EFC) technique, which is a proximity-based assay. Briefly, cells used in this assay over-express two fusion proteins, i.e. the receptor, which can be one of TrkA or TrkB fused to a small peptide of beta-galactosidase and an adaptor protein, i.e. SHC1 (or any other Trk-adaptor protein) fused to the major part of beta-galactosidase. […] The proximity between the small activating peptide on the receptor and the major part of beta-galactosidase on the adaptor protein leads to an active beta-galactosidase enzyme. The activation of the receptor is quantified by measuring the amount of active beta-galactosidase by its conversion of a non-luminescent substrate into a luminescent product.
(§3) U2OS-cells, over-expressing TrkA or TrkB, were plated in 96- or 384-well plates and incubated overnight. On the following day, test compound was pre-mixed with ligand (NGF) and the ligand-compound mixture is then added to the cells to yield a final ligand concentration of 10 ng/mL. After 3 hours of incubation at room temperature, the incubation is stopped by the addition of a beta-galactosidase substrate mixture containing detergents. The substrate mixture is incubated for 60 minutes at ambient temperature. The luminescence is thereafter read by the use of a plate reader.

[1] = Human liver microsomal stability; type: in vitro ADME; conditions: human liver microsomes 0.5 mg/mL, 3 μM compound, NADPH, 37° C.
Method: A 10 mM stock solution (in DMSO) was prepared for each compound. From the intermediate stock solution of 2 mM, a working solution of 0.5 mM was prepared by diluting the compound in Acetonitrile:water (50:50). The compound (1.8 μL of working solution) was spiked in 0.1 M potassium phosphate buffer (260.7 μL), pH 7.4 at a concentration of 3 μM (0.1% DMSO). Following this, human liver microsomes (pooled, Invitrogen, #HMMCPL) (7.5 μL; final protein conc. 0.5 mg/mL) were added. The aforementioned sample was incubated at 37° C. for 5 min. Subsequently, 30 μL of 10 mM NADPH prepared in 0.1 M potassium phosphate buffer was added (as a co-factor) to initiate the reaction. The samples were then incubated at 37° C. for 0, 20, 40, 60 and 120 min.
At each time point (0, 20, 40, 60 and 120 min), 40 μL of the samples were withdrawn and reactions were stopped using 360 μL chilled acetonitrile or methanol containing suitable internal standard (Carbamazepine). The samples were centrifuged and the supernatants was analyzed in duplicate by LC-MS/MS. The percent compound remaining at each time point was calculated with respect to that of the 0 min sample. Control samples were run without NADPH for initial and final time point and blank samples was prepared using DMSO (without the test compound).
For comparison, the experiment was also performed with known Trk receptor signalling modulator 1-methyl-3-[3-methyl-4-(4-trifluoromethanesulfonylphenoxy)phenyl]-1,3,5-triazinane-2,4,6-trione) (ponazuril). Ponazuril is metabolized very slowly in vivo and this prolonged exposure creates an increased risk of side effects if the compound is administered systemically. This causes significant challenges to the development of the compound as a systemic drug.

TrkB = biological target: T2, TrkB (Homo sapiens, UniProt Q16620); assay: In vitro Trk receptor modulation assay (Enzyme Fragment Complementation), U2OS cells over-expressing TrkB; type: cell-based; conditions: compound pre-mixed with ligand (NGF), final 10 ng/mL, 3 hours, modulator mode
T2 construct: expressed in transfected cells; host or cells: U2OS
Source text: as §1, §2, §3

C57/B16 mice = assay: Forced Swim Test; type: in vivo; conditions: 1 mg/kg single s.c. administration 30 min prior to FST on day 2
Method: The Forced Swim Test (FST) is a commonly used test in rodents to assess depression-like behaviour (Porsolt et al., Nature, 1977, 266, 730-732). The model measures a learned helplessness response and has shown to have predictive validity for clinical antidepressants, e.g. SSRIs.
The mouse version consists of a vertical glass cylinder (25 cm high, 13 cm in diameter) filled with tap water up to 16 cm in height (25±0.5° C.). This means that the animal cannot escape (climb out) nor stand on its tail or hindlimbs. After a certain time the animal realize that it cannot get out and will stop struggling to get out, and instead become immobile and float.
The animal is placed inside the cylinder and allowed two swimming sessions: a 10 min pre-test (on day 1), 24 h later (day 2) a second 6 min test is conducted. The total duration of immobility and latency to the first immobility are recorded during the second 6 min test. Immobility is defined as floating passively in an upright position in the water, with only small movements necessary to keep the head above the water surface. Animals are then gently removed from water and dried.
Vehicle (20% DMSO in 0.1M PBS) or 1 mg/kg of the compound of Example 1 were administered to C57/B16 mice as a single s.c. administration 30 min prior to FST on day 2. As comparator, fluoxetine is commonly used a dose of 20 mg/kg. […]

T1 sequence (P04629 33-796): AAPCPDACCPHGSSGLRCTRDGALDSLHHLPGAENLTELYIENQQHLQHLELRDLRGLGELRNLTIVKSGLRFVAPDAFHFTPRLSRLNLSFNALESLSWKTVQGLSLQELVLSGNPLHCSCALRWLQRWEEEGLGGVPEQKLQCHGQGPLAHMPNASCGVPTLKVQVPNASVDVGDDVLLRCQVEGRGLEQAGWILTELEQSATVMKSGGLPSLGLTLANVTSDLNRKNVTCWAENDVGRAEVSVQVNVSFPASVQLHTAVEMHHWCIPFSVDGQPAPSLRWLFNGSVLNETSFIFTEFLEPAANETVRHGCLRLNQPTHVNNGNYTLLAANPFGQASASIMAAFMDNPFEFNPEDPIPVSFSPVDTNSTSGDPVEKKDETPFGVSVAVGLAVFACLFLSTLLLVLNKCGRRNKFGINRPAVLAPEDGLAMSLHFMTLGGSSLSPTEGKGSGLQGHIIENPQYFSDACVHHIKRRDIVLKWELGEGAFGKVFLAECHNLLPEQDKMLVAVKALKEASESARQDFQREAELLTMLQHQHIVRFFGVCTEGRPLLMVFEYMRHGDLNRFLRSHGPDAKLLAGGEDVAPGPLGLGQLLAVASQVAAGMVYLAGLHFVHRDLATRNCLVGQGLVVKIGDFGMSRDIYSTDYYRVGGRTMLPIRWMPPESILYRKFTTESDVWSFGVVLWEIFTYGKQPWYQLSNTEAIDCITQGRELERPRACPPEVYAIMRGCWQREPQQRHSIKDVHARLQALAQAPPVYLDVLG
T2 sequence (Q16620 32-822): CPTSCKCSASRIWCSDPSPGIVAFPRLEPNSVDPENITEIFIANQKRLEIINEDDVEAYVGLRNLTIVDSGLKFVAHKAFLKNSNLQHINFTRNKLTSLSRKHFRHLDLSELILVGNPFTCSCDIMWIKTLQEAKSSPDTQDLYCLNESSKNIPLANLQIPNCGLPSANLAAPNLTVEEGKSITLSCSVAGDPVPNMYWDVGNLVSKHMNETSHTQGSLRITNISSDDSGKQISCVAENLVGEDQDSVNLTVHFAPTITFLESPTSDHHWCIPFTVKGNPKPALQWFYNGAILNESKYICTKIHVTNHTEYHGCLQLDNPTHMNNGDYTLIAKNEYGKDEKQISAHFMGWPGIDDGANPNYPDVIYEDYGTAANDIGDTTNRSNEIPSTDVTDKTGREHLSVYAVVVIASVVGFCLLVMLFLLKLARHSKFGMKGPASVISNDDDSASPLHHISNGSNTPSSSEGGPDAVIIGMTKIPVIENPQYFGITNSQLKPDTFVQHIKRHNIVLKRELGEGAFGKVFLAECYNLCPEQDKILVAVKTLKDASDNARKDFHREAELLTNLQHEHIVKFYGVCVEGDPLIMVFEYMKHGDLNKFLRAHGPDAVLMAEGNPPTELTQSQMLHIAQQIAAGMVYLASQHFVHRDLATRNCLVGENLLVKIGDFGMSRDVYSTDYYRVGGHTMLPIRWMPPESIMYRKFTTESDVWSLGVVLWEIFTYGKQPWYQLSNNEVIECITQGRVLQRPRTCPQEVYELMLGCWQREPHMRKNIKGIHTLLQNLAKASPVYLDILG

For `Cc1cccc(-n2c(=O)[nH]c(=O)n(-c3ccc(Oc4ccccc4)c(C)c3)c2=O)c1` [Example 1, 1-(3-methyl-4-phenoxyphenyl)-3-(3-methylphenyl)-1,3,5-triazinane-2,4,6-trione], which “cognitive function, retention latency within the bright area (passive avoidance)” value (C57/Bl6 mice) is on record?
Its value is “improves cognitive function”.

And the EC50 (TrkA)?
The EC50 was 0.12 µM.

What about the “% of parent compound metabolized after 120 min” value [1] of the same compound?
Its value is 26.8%.

What about the EC50 (TrkB) of the same compound?
The EC50 was 0.15 µM.

And the “time spent immobile (Forced Swim Test) compared to vehicle control” value (C57/B16 mice)?
The value was “decreased time spent immobile”.
